logD data for 20 molecules are collected here from ChEMBL document CHEMBL1821550 (Bioorg Med Chem Lett, 2011).

A short description of the data set: physchem. To be noted: octanol/water.

As usually defined, the logD is lipophilicity at a set pH, counting ionised and neutral species.

The molecule `Cc1[nH]ncc1-c1ccc2cc(CCN3CCC[C@H]3C)ccc2n1` registered a logD of 2.4. Consider `COc1cccc2nc(C)n(-c3ccc(OCCCN4CCCC4)cc3)c(=O)c12`, for which the logD was 1.7. The result for `C[C@@H]1CCCN1CCc1ccc2nc(-c3c(-c4ccccc4)nn(C)c3Cl)ccc2c1` reads 4.7; that for `COC(=O)c1c(C)noc1-c1ccc2cc(CCN3CCC[C@H]3C)ccc2n1`, 2.5; that for `c1cc(C2CCCO2)ccc1OCCCN1CCCCC1` (stereo not given), 1.7.

Molecule `C[C@@H]1CCCN1CCc1ccc(-c2ccc(S(=O)(=O)NCc3ccccc3)cc2)cc1` gave a logD of 3.6. The molecule `C[C@@H]1CCCN1CCc1ccc2nc(-c3ccc(-n4ccc(=O)cc4)cc3)ccc2c1` returned a logD of 3.4. The value for `C[C@@H]1CCCN1CCc1cc2cc(-c3ccc(C#N)cc3)ccc2o1` was 3.2; that for `COc1ccc(-c2cnc3nc(N4CCC(N5CCCCC5)CC4)sc3c2)cn1` was 1.4; that for `C[C@@H]1CCCN1CCc1ccc2nc(-c3nc4ccccc4s3)ccc2c1` was 4.1. Molecule `CCCNS(=O)(=O)c1ccc(-c2ccc(CCN3CCC[C@H]3C)cc2)cc1` returned a logD of 2.8.

In turn, `COCC1CCCN1S(=O)(=O)c1ccc(-c2ccc(CCN3CCC[C@H]3C)cc2)cc1` (stereo not given in full) showed a logD of 2.5.

Regarding `c1cc(C2=NCCO2)ccc1OCCCN1CCCCC1`, the logD was found to be 1.3.

With `N#Cc1cncc(-c2cnc3nc(N4CCC(N5CCCCC5)CC4)sc3c2)c1`, the logD was determined as 0.8.

The molecule `Cc1nn(C)cc1-c1ccc2cc(CCN3CCC[C@H]3C)ccc2n1` came in with a logD of 2.6. The result for `C[C@@H]1CCCN1CCc1ccc2nc(-c3nccs3)ccc2c1` reads 2.5; that for `c1cc(C2CCCCC2)ccc1OCCCN1CCCCC1`, 3.6.

With `CC1CCCN1CCc1ccc2nc(-c3ccsc3)ccc2c1` (stereo not given), the logD is 3.3. The result for `Cc1nc(C)c(-c2ccc3cc(CCN4CCC[C@H]4C)ccc3n2)o1` reads 2.4.

Regarding `COC(=O)c1cc(-c2ccc3cc(CCN4CCC[C@H]4C)ccc3n2)on1`, the logD was 2.7.
